Measurements: US20240132461A1, “FLAVONE DEAZA SPERMIDINE ANALOGUES AND THEIR USE TREATING CANCER” (FLORATEK PHARMA S.A., priority 2021, published 2024)

Columns and labels:
H69AR [1] = experiment: Cell viability assay, resistant small cell lung carcinoma cell line H69AR; type: cell-based; settings: H69AR multiple drug resistant small cell lung carcinoma cell line
Description: (§1) Antitumor activity of the compounds and doxorubicin as a positive control was assessed by using the CellTiter-Blue Cell Viability Assay (Promega, #G8082) or CellTiter-Glow® Luminescent Cell Viability assay (Promega # G7572) according to the manufacturer's instructions. The compounds were tested at 5 or 6 concentrations in half-log increments (highest concentration 30 μM-100 μM) in duplicate or triplicate well conditions.
(§2) Tumor cells were grown at 37° C. in a humidified atmosphere with 5% CO2 in RPMI 1640 or DMEM medium, supplemented with 10% (v/v) fetal calf serum and 50 μg/ml gentamicin for up to 20 passages, and were passaged once or twice weekly. Cells were harvested using TrypLE or PBS buffer containing 1 mM EDTA, and the percentage of viable cells is determined using a CASY Model TT cell counter (OMNI Life Science). Cells were harvested from exponential phase cultures, counted and plated in 96 well flat-bottom microtiter plates at a cell density depending on the cell line's growth rate (4,000-20,000 cells/well depending on the cell line's growth rate, up to 60,000 for hematological cancer cell lines) in RPMI 1640 or DMEM medium supplemented with 10% (v/v) fetal calf serum and 50 μg/ml gentamicin (140 μl/well). Cultures were incubated at 37° C. and 5% CO2 in a humidified atmosphere. After 24 h, 10 μl of test compounds or control medium are added, and left on the cells for another 72 h. Compounds were serially diluted in DMSO, transferred in cell culture medium, and added to the assay plates. The DMSO concentration was kept constant at <0.3% v/v across the assay plate. Viability of cells was quantified by the CellTiter-Blue® cell viability assay (Promega G8081) or CellTiter-Glow® Luminescent Cell Viability assay (Promega # G7572). Fluorescence (FU) was measured by using the EnSpire® multimode plate reader (Perkin Elmer) (excitation λ=570 nm, emission λ=600 nm) or luminescent detection of ATP in viable cells was used as parameter for proliferation. Luminescence was measured with the microplate luminometer (Promega or Perkin Elmer).
(§3) Sigmoidal concentration-response curves were fitted to the data points (test-versus-control, T/C values) obtained for each tumor model using 4 parameter non-linear curve fit (Charles River DRS Datawarehouse Software) or with GraphPad prism 5.02 software. IC50 values are reported as absolute IC50 values, being the concentration of test compound at the intersection of the concentration-response curves with T/C=50%
The multiple drug resistant cell line H69AR obtained from ATCC, was established from NCI-H69 cells that were grown in the presence of increasing concentrations of adriamycin (doxorubicin). The H69AR cell line is approximately 50-fold resistant to adriamycin as compared to the parental NCI-H69 cell line. SND141, SND142, SND143, SND146, SND147 and SND148 inhibited the resistant cell line H69AR with IC50s below 5 μM, as presented in Table 8.

Panc-1 = experiment: Cell viability assay, pancreatic carcinoma cell line Panc-1; type: cell-based; settings: Homo sapiens; Panc-1 pancreatic carcinoma cell line
Description: as §1, §2, §3

MIA-Pa-Ca-2 = experiment: Cell viability assay, pancreatic carcinoma cell line MIA-Pa-Ca-2; type: cell-based; settings: Homo sapiens, MIA PaCa-2; MIA-Pa-Ca-2 pancreatic carcinoma cell line
Description: as §1, §2, §3

CH-17-0098 = experiment: PDX cytotoxicity assay, bile duct PDX CH-17-0098; type: cell-based
Description: PDX-derived cell cultures were obtained from tumors explanted from mice and isolated by mechanical and enzymatic dissociation. […] Cells were harvested and seeded in 96-wells plates at a density of 1.25 to 5×10^3 cells/well for cytotoxicity assays. Cells were incubated 48 h at 37° C. prior to addition of test molecules and vehicle (DMSO, 0.1%) at desired final concentrations. Cell viability was assessed before drugs' addition (T0) and 5 days after test molecules addition by measuring ATP cell content using CellTiter-Glo® Luminescent Cell Viability Assay (Promega) according to the manufacturer's instructions. Luciferase activity was measured on a luminometer (PerkinElmer® EnVision™). Each concentration of compounds was tested in triplicate.
Viability was calculated as a percentage of ATP value compared to vehicle treated controls.
For PDX primary cell cultures, the tumour tissue was washed with PBS containing antibiotic-antimycotic and non-tumour tissue and necrotic tumour tissues were separated. The tumour tissue was transferred to a new dish and cut into 1˜2 mm^3 fragments, resuspended in RPMI-1640 medium and centrifuged at 1,200 rpm for 6 min at room temperature. The pelleted material was resuspended with 15 mL of Tumour Cell Digestion Solution and incubated at 37° C. for 1 hour with agitation. […]

[2] = In vivo maximum tolerated dose in NOG mice; settings: for tolerability at the highest dose administered: 8-10 mg/kg i.p., daily or every other day over 8 days; for MTD at 8 days: mouse, in vivo, ip, repeated i.p. administration, MTD not reached, read-out: maximum tolerated dose (MTD), estimated
Description: In order to evaluate the general toxicity of selected SND compounds in an animal model, a maximum tolerated dose (MTD) in NOG mice has been undertaken. Three mice per group were treated daily or every other day over 8 days at various doses between 5 mg/kg and 10 mg/kg. Administration of the compounds was i.p. A stock solution of the compounds (40 mg/ml in DMSO) was prepared and frozen at −20° C. in aliquots for each treatment. […] Body weights were measured before each treatment. Mice were further observed for 1 week after the last treatment.

[3] = system: pancreatic carcinoma cell; experiment: Cell viability assay, pancreatic carcinoma cell lines (summary); type: cell-based; settings: summary of Table 12; read-out: IC50s, pancreatic carcinoma cell growth
Description: as §1, §2, §3

IMR-5-75 = experiment: Cell viability assay, brain carcinoma cell line IMR-5-75; type: cell-based; settings: IMR-5-75 brain carcinoma cell line
Description: as §1
(§4) Tumor cells were grown at 37° C. in a humidified atmosphere with 5% CO2 in RPMI 1640 or DMEM medium, supplemented with 10% (v/v) fetal calf serum and 50 μg/ml gentamicin for up to 20 passages, and were passaged once or twice weekly. Cells were harvested using TrypLE or PBS buffer containing 1 mM EDTA, and the percentage of viable cells is determined using a CASY Model TT cell counter (OMNI Life Science). Cells were harvested from exponential phase cultures, counted and plated in 96 well flat-bottom microtiter plates at a cell density depending on the cell line's growth rate (4,000-20,000 cells/well depending on the cell line's growth rate, up to 60,000 for hematological cancer cell lines) in RPMI 1640 or DMEM medium supplemented with 10% (v/v) fetal calf serum and 50 μg/ml gentamicin (140 μl/well). […] Viability of cells was quantified by the CellTiter-Blue® cell viability assay (Promega G8081) or CellTiter-Glow® Luminescent Cell Viability assay (Promega # G7572). […]

NCI-H1299 = experiment: Cell viability assay, non-small cell lung carcinoma cell line NCI-H1299; type: cell-based; settings: Homo sapiens
Description: as §1, §2, §3

SK-OV-3 = experiment: Cell viability assay, ovarian carcinoma cell line SK-OV-3; type: cell-based
Description: as §1, §4

MeWo = experiment: Cell viability assay, melanoma cell line MeWo; type: cell-based; settings: Homo sapiens
Description: as §1
as §2, with “Elmer). […]” for “Elmer).”

A375 = experiment: Cell viability assay, melanoma cell line A375; type: cell-based; settings: Homo sapiens, A-375
Description: as §1, §2, §3

lung carcinoma cell = experiment: Cell viability assay, lung carcinoma cell lines (summary); type: cell-based; settings: summary of Tables 7A-E; read-out: IC50s, lung carcinoma cell growth
Description: as §1, §2, §3

melanoma cell lines = experiment: Cell viability assay, melanoma cell lines (summary); type: cell-based; settings: summary of Tables 14A and 14B; read-out: IC50s, melanoma cell lines growth
Description: as §1, §2, §3

H69AR [4] = settings: H69AR from ATCC, vs parental NCI-H69; cited from earlier work
CALU-6 = experiment: Cell viability assay, non-small cell lung carcinoma cell line CALU-6; type: cell-based; settings: Homo sapiens; CALU-6 non-small cell lung carcinoma cell line
Description: as §1, §2, §3

RXF 486 = experiment: Cell viability assay, MDR renal carcinoma patient derived line RXF 486; type: cell-based; settings: RXF 486 MDR renal carcinoma patient derived line
Description: as §1, §4

Row | IC50 (lung carcinoma cell) [µM] | SMILES | IC50 (H69AR [1]) [µM] | IC50 (H69AR [1]; Homo sapiens, H69AR) [µM] | IC50 (Panc-1) [nM] | IC50 (MIA-Pa-Ca-2) [nM] | tolerability at the highest dose administered [2] | MTD at 8 days [2] [mg/kg] | IC50 [3] [µM] | IC50 (RXF 486) [nM] | also measured
1 |  | COc1c(O)ccc2c(=O)cc(-c3ccc(CCCCN4CCCCC4)cc3)oc12 [SND148, 7-hydroxy-8-methoxy-2-(4-(4-(piperidin-1-yl)butyl)phenyl)-4H-chromen-4-one] | 2.5 | < 5 | 2300 | 2210 | well tolerated | > 10 | < 10 |  | IC50 (CH-17-0098): 13.9 µM
2 | < 20 | COc1c(O)ccc2c(=O)cc(-c3ccc(CCCCNCCNCCCN)cc3)oc12 [SND211] |  |  |  |  |  |  |  |  | IC50 (IMR-5-75): 1500 nM; IC50 (NCI-H1299): 1800 nM; IC50 (SK-OV-3; Homo sapiens, SK-OV-3, SK-OV-3 ovarian carcinoma cell line): < 20 µM; IC50 (SK-OV-3; SK-OV-3 ovarian carcinoma cell line): 10.6 µM; IC50 (MeWo): 5.3 µM; IC50 (A375): 1800 nM; IC50 (melanoma cell lines): < 10 µM
3 |  | COc1cccc2c1C(=O)c1c(O)c3c(c(O)c1C2=O)C[C@@](O)(C(=O)CO)C[C@@H]3O[C@H]1C[C@H](N)[C@H](O)[C@H](C)O1 [adriamycin] |  |  |  |  |  |  |  |  | resistance of H69AR compared to the parental NCI-H69 cell line (H69AR [4]): approximately 50 fold
4 | < 20 | COc1c(O)ccc2c(=O)cc(-c3ccc(CCCCN(C)CCN4CCCCC4)cc3)oc12 [SND146, 7-Hydroxy-8-methoxy-2-(4-(4-(methyl(2-(piperidin-1-yl)ethyl)amino)butyl)phenyl)-4H-chromen-4-one] |  |  | 1200 | 870 |  |  | < 10 | 400 | IC50 (CALU-6): 17.2 µM
5 |  | COc1c(O)ccc2c(=O)cc(-c3ccc(CCCCN4CCCC4)cc3)oc12 [SND143, 7-hydroxy-8-methoxy-2-(4-(4-(pyrrolidin-1-yl)butyl)phenyl)-4H-chromen-4-one] | 3.3 | < 5 | 6090 | 4960 | well tolerated | > 10 | < 10 | 1300 | 
